In patent US8609432B2, “Method and kit for detection of autoimmune chronic urticaria” (priority 2005, dated 2013):

Experiments:
[1] = tested on: basophils (CD203c/IgE positive cells) in donor whole blood; assay: Measurement of CD203c surface expression on donor basophils by flow cytometry; type: cell-based, human; details: positive controls, donor heparinized whole blood incubated 10 minutes at 37° C.; above buffer baseline; mean ±SEM, n=4
Method: Whole blood from seven normal individuals was screened and one donor was identified based on the marked upregulation of CD203c on basophils (CD203c/IgE positive cells) in response to fMLP and anti-FcεRIα antibody.
The test was carried out on heparinized blood within 3-4 hours after drawing the donor's blood. Two hundred μL aliquots of the donor's heparinized whole blood were incubated for 10 minutes at 37° C. with 40 μL of sera from CU patients, normal controls, or IgG depleted sera. For controls, 40 μL basophil stimulation buffer (20 mM HEPES, 125 mM NaCl, 5 mM KCl, 2.5 mM CaCl2, 1 mM MgCl2, 0.5 mM glucose, and 0.1% BSA, pH 7.4) was added to 200 μL of donor's blood and used as the negative control while 40 μL of […] f-Met-Leu-Phe (fMLP, Sigma, St. Louis, Mo.) and 40 μL of a 1:50 dilution of anti-FcεRIα receptor antibody (Upstate, Charlottesville, Va.) in Ca++ and Mg++ free phosphate buffered saline (PBS) were used as positive controls. […] The cells were then analyzed on a FACSCalibur flow cytometer (Becton Dickinson, San Jose, Calif.).
Basophils from whole blood were identified by the presence of CD203c on high expressing IgE positive cells (FIGS. 1A and 1B). The data are expressed as the mean fluorescence intensity or the percentage of CD203c expression. […] This was determined by defining an M1 region on the histogram analysis (FIG. 1C).

[2] = tested on: basophils, CD203c expression; details: cited from earlier work
[3] = tested on: basophils, CD63 expression; details: cited from earlier work

Row | Molecule | mean percent basophil CD203c expression [1] | induction of CD203c expression [2] | stimulation of CD63 expression [3]
1 | f-Met-Leu-Phe [fMLP] | 34.5%±14.6 | – | –
2 | CCCCC[C@H](O)/C=C/[C@H]1C(=O)C[C@H](O)[C@@H]1C/C=C\CCCC(=O)O [PGD2] | – | strong inducer | does not stimulate
